Assay results: PMC12147034, “Identification of alkynyl nicotinamide HSN748 as a RET solvent-front mutant inhibitor with intracranial efficacy” (RSC Medicinal Chemistry, 2025)
Where a chain is given by its changes, count along the chain named. Several values for one entry are separate records, joined by “and”; a condition that tells them apart may be missing. Equal values may be shown once.

Legend:
Format in all cases: cell-based
[1] = target: T1, BaF3/TEL-VEGFR2 (B/TV) cells (Homo sapiens, UniProt P35968+P41212); experiment: Cell viability assay (CellTiter-Glo, 3 days) in B/TV cells; conditions: TEL-VEGFR2-dependent BaF3 cells, 3 days; read-out: IC50 B/TV WT
T1 construct: fused to VEGFR2 (KDR) amino acids 807–1356; TEL (ETV6) amino acids 1–336 (N-terminal fusion partner); FLAG; expressed in transfected cells; host or cells: BaF3 (lentiviral pLentP TEL-VEGFR2)
Description: (§1) The TEL-VEGFR2 cDNA was then subcloned into pLentP lentiviral vector.[21] and BaF3/TEL-VEGFR2 (B/TV) cells were generated by infecting BaF3 cells with the lentiviral TEL-VEGFR2 as described. Cell viability assay was performed using CellTiter-Glo reagent (G7573, Promega, Madison, WI, USA) after 3 days of drug treatment as described for BaF3-derived cells and 5 days for IMR-90 cells.

[2] = tested on: BaF3/TEL-VEGFR2 (B/TV) cells; experiment: as above; conditions: ratio of B/TV IC50 to B/KR WT IC50
Description: as §1

[3] = target: T2, B/KR(G810C) cells, KIF5B-RET G810C (Homo sapiens, UniProt P07949+P33176, G810C); experiment: Cell viability assay (CellTiter-Glo, 3 days) in B/KR(G810C) cells
T2 construct: FLAG; expressed in transfected cells; host or cells: BaF3
T2 sequence (P07949 713-1063 G810C limits assumed): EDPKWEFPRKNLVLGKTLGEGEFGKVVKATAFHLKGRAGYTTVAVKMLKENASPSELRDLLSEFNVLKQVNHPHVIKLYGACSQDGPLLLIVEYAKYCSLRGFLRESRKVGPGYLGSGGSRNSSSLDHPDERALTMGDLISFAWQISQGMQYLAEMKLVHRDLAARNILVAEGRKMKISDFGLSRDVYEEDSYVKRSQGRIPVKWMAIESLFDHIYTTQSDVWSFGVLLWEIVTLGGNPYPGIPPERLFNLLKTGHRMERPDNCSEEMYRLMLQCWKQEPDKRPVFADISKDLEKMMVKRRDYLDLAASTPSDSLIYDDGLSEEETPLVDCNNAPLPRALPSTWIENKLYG
Description: (§2) BaF3 cell lines expressing a flag-tagged KIF5B-RET (B/KR) and the KIF5B-RET containing G810C, G810R, G810S, V804M, V804L mutations were as reported.[8,13,17,21–23] […] Infected cells were cultured for two weeks, and cells with high GFP intensity were sorted into a 96-well plate (1 cell/well). After the expansion of growing cell lines, they were screened for a high level of luciferase activity by luminescence imaging after exposure to D-luciferin. IMR-90 cells were from ATCC.
as §1

[4] = tested on: KIF5B-RET autophosphorylation in B/KR and mutant cells; experiment: Immunoblotting analysis of cell lysates; conditions: Fig. S1A
Source text: Figure S1. Immunoblotting analyses of cell lysates.
(A) Immunoblotting analysis of compounds on inhibition of KR or its mutant kinase activity and
induction of apoptosis in B/KR and mutant cells. (B) Immunoblotting analysis of HSN748-treated
(1 picture or pasted object on this page, not shown here)

[5] = target: T3, B/KR(G810S) cells, KIF5B-RET G810S (Homo sapiens, UniProt P07949+P33176, G810S); experiment: Cell viability assay (CellTiter-Glo, 3 days) in B/KR(G810S) cells
T3 construct: FLAG; expressed in transfected cells; host or cells: BaF3
T3 sequence (P07949 713-1063 G810S limits assumed): T2 sequence (P07949 713-1063 G810C limits assumed) with C98S
Description: as §2, §1

B/KR(G810C/R/S) cells = experiment: Cell viability assay, RET solvent-front mutants stated jointly; conditions: read-out: IC50s for B/KR(G810C/R/S) cells; stated jointly for G810C, G810R and G810S
Description: as §2, §1

[6] = target: T4, B/KR(V804L) cells, KIF5B-RET V804L (Homo sapiens, UniProt P07949+P33176, V804L); experiment: Cell viability assay (CellTiter-Glo, 3 days) in B/KR(V804L) cells
T4 construct: FLAG; expressed in transfected cells; host or cells: BaF3
T4 sequence (P07949 713-1063 V804L limits assumed): T2 sequence (P07949 713-1063 G810C limits assumed) with V92L, C98G
Description: as §2, §1

T1 sequence (P41212+P35968 fused): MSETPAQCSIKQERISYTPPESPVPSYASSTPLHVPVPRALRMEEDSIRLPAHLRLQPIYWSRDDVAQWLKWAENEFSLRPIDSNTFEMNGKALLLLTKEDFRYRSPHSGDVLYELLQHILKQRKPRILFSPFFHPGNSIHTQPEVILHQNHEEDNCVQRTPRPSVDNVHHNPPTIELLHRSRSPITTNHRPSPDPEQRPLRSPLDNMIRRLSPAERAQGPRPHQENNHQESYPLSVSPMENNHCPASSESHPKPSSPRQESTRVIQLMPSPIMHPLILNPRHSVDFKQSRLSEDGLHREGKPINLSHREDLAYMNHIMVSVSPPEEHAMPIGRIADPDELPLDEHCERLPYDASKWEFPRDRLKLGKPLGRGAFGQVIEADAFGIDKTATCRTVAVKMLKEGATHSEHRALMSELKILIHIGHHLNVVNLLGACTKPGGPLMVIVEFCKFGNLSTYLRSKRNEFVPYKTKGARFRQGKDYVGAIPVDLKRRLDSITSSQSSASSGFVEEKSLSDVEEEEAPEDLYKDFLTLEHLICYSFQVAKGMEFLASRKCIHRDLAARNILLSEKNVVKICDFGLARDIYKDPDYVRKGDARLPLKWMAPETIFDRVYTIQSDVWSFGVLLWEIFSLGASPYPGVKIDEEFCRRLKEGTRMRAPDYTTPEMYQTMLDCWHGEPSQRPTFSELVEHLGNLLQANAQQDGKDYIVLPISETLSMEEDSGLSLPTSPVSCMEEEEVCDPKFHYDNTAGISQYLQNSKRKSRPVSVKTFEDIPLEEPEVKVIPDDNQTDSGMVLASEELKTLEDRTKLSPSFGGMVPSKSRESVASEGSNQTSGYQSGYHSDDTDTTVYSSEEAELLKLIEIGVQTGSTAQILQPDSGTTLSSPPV

SMILES	IC50 [1]	VEGFR2/RET (fold) [2]	IC50 [3]	KIF5B-RET autophosphorylation and apoptosis (immunoblotting) [4]	IC50 [5]	IC50 (B/KR(G810C/R/S) cells)	IC50 [6]
CN1CCN(Cc2ccc(NC(=O)c3cncc(C#Cc4cnc5cccnn45)c3)cc2C(F)(F)F)CC1 [HSN748]	7.34 ± 0.09 nM	1.81 fold	7.93 ± 0.33 nM	inhibit KIF5B-RET autophosphorylation and induce apoptosis at low nanomolar concentrations	13.9 ± 0.32 nM	< 33 nM	55 nM and 55.7 nM
CCOc1ccc2ncc(C#Cc3cncc(C(=O)Nc4ccc(CN5CCN(C)CC5)c(C(F)(F)F)c4)c3)n2n1 [HSND14, 5-((6-Ethoxyimidazo[1,2-b]pyridazin-3-yl)ethynyl)-N-(4-((4-methylpiperazin-1-yl)methyl)-3-(trifluoromethyl)phenyl)nicotinamide]	6.88 ± 0.15 nM	1.71 fold	15.9 ± 0.72 nM	inhibit KIF5B-RET autophosphorylation and induce apoptosis at low nanomolar concentrations	5.21 ± 0.15 nM	< 33 nM	30 ± 1.2 nM
Cc1n[nH]c2ncc(C#Cc3cncc(C(=O)Nc4ccc(CN5CCN(C)CC5)c(C(F)(F)F)c4)c3)cc12 [HSND19, 5-((3-Methyl-1H-pyrazolo[3,4-b]pyridin-5-yl)ethynyl)-N-(4-((4-methylpiperazin-1-yl)methyl)-3-(trifluoromethyl)phenyl)nicotinamide]	5.56 ± 1.11 nM	2.85 fold	9.08 ± 1.63 nM	inhibit KIF5B-RET autophosphorylation and induce apoptosis at low nanomolar concentrations	4 ± 0.16 nM	< 33 nM	20.6 ± 2.22 nM
